Earlier results, collected in paper PMC4191920 (Journal of molecular biology, 2014).

Tested on: fibril formation
Conditions: at pH 7.4

In the case of [Nα-methyl-β-Ala26]Aβ42, the “effect on fibril formation” value is given as “inhibit fibril formation”.
